The conditions of data set [1]: 25° C. An excerpt:
Two different shelf-life criteria were considered; time to exceed phenytoin solubility in the presence and absence of (SBE)7m-β-CD and 0.5% phenytoin production.

For data set [2] the following is noted: for Kd: 0.02 m tris buffer. Here is the method: After sonication and mixing by vortex mixer, the phenytoin-suspended solutions were placed in a shaking, temperature controlled water bath for at least 5 days at 25° C. After equilibration, checked by periodic sampling, the suspensions were filtered through a membrane filter (Acrodisc, PVDF 0.2 μm, Gelman). The filtrate was isolated and diluted with HPLC mobile phase and the concentration of phenytoin was determined by HPLC. This work was performed in duplicate.
This phenomena is illustrated in Scheme (2). The binding constant for the phenytoin/(SBE)7m-β-CD complex, K1 can be calculated by the slope and intercept of the data from FIG. 3 (absence of fosphenytoin) according to Eq 2 (Hiquchi, T and Connors K. A.) […]
K1 =Slope/Intercept(1-Slope) (2)
K2, the binding constant for the fosphenytoin/(SBE)7m-β-CD complex can be calculated according to Eq. 6 as follows; K1 =(St-So')/(St-(St-So'))(Lt-(St-so')-x)
K1 =Slope/So'(1-Slope-x/Lt) (3)
K2 =x/(St'-x)(Lt-(St-So')-x
=(x/Lt)/(St'-x)(1-Slope-x/Lt) (4) […]
x/Lt=1-Slope-Slope/K1 So' (5)
Eq. 4 and Eq. 5 lead to Eqs. 6 and 7, K2 =(1/(St'-x))K1 So'/Slope-So'K1 -1) (6)
≈(1/St')(K1 So'/Slope-So'K1 -1) (7) where various terms are defined in Scheme (2). The term, St'-x, in Eq. 6 represents the free fraction of fosphenytoin in the presence of CD and theoretically should change with increasing CD concentration.

For data set [3] the following is noted: pH values >8.0; cited from earlier work.
Data set [4] in a line: Arrhenius plot for phenytoin production rate from fosphenytoin. Type of data set: physicochemical. The text has this:
These values are higher than those reported previously; 30.8 kcal/mol and also are higher than Ea values reported from most other drug degradation studies (10-30 kcal/mol) (Yoshioka, S. Stability of Drugs and Dosage Forms, Nankodo Co. Ltd., Tokyo, 1995; pp.30-67). One possible explanation for the difference may be the effect of temperature on the pH of tris buffer solutions. […] Consequently, the change of phenytoin production rate can attribute not only to the direct effect of temperature on the kinetics but also the effect of temperature on pH. Since our principal goal was to study the effect of temperature on the stability of some protype formulations, buffer pH values were not adjusted at each temperature.

The conditions of data set [5]: high pH 8.5 formulation, refrigeration; cited from earlier work.
The conditions of data set [6]: literature value; cited from earlier work.
The conditions of data set [7]: cited from earlier work.
Data set [8] can be described thus: Phenytoin solubility in absence and presence of fosphenytoin and (SBE)7m-β-CD. In kind it is physicochemical. Conditions: 0.02 m tris buffer. Here is the method:
This work was performed in duplicate.
The fosphenytoin concentration of 80.6 mg/ml (75 mg/ml anhydrous fosphenytoin) was the same as the commercial product. […] The solubility of phenytoin is elevated in the presence of fosphenytoin probably through micellar or complex formation (Anderson et al. J. Pharm. Sci. 74 375-381; Muller et al. Int. J. Pharm. 75 201-209, 1991).

For data set [9] the following is noted: AHFS Drug Information; cited from earlier work.

Here are results for 2 compounds from US6133248A, “Polar drug of prodrug compositions with extended shelf-life storage and a method of making thereof” (priority 1998, dated 2000).

Each structure is given as a SMILES string. Where two headings read alike, the source gives them in different places.

`O=C1NC(c2ccccc2)(c2ccccc2)C(=O)N1COP(=O)(O)O` [fosphenytoin]: the “Time without phenytoin precipitation” value is given as “over two years” in [1] (60 mM (SBE)7m-β-CD, either pH) and “at least 17 years” in data set [1] (pH 8.0, 60 mM (SBE)7m-β-CD). The “Physically stable formulations, shelf-life” value in data set [1] (pH range 7.4-8.0) is recorded as “greater than two years”. The “Shelf-life by 0.5% phenytoin production criterion” value in data set [1] (with (SBE)7m-β-CD) is “greater than two year”. Moreover, the “Kinetics of phenytoin production” value is “apparent zero-order kinetics” (0.02M tris, 60° C., pH 7.4 and 8.0); “pseudo zero-order kinetics” (all temperatures, CD concentrations and both pH values). In addition, the “Influence of (SBE)7m-β-CD on phenytoin production rate” value (30 or 60 mM (SBE)7m-β-CD, fosphenytoin 80.6 mg/ml) is recorded as “did not appear to influence the phenytoin production rate although here was a very slight trend to greater stability with increasing (SBE)7m-β-CD concentration”. For the same compound, the “Degradant peaks (phenytoin vs earlier eluting peak)” value is, setting by setting: (pH 7.4) “phenytoin was the major degradant peak observed”; (pH 8) “this peak had an area comparable to that of phenytoin”. In addition, the “Rate of Phenytoin Production” value (pH 7.4, 25° C., 0 mM CD) was determined as 0.160 µg/mL/day; the “Rate of Phenytoin Production” value (pH 7.4, 25° C., 60 mM CD) turned out to be 0.133 µg/mL/day; the “Rate of Phenytoin Production” value (pH 7.4, 37° C., 60 mM CD) worked out at 0.993 µg/mL/day; the “Rate of Phenytoin Production” value (pH 7.4, 50° C., 60 mM CD) came to 21.37 µg/mL/day; the “Rate of Phenytoin Production” value (pH 7.4, 60° C., 0 mM CD) worked out at 111.8 µg/mL/day; the “Rate of Phenytoin Production” value (pH 8.0, 25° C., 0 mM CD) was found to be 0.083 µg/mL/day. For the same compound, the “Rate of Phenytoin Production” value stood at 0.088 µg/mL/day (pH 8.0, 25° C., 30 mM CD); 0.075 µg/mL/day (pH 8.0, 25° C., 60 mM CD); 0.634 µg/mL/day (pH 8.0, 37° C., 0 mM CD); 0.600 µg/mL/day (pH 8.0, 37° C., 30 mM CD); 0.562 µg/mL/day (pH 8.0, 37° C., 60 mM CD); 14.43 µg/mL/day (pH 8.0, 50° C., 30 mM CD). Also, the “Rate of Phenytoin Production” value by setting is: (pH 8.0, 50° C., 60 mM CD) 13.82 µg/mL/day; (pH 8.0, 60° C., 0 mM CD) 67.20 µg/mL/day. Also, the equilibrium dissociation constant (Kd) was 25.6 mM in [2] (pH 7.4) and 29.4 mM in data set [2] (pH 8). In data set [3], the “Stability at higher pH” value is “more unstable”. Besides, the “Ea (apparent activation energy), phenytoin production” value is recorded as 38.9 kcal/mol in [4] (pH 7.4) and 39.5 kcal/mol in data set [4] (pH 8.0). In addition, in data set [5], the “Shelf-life of the prodrug product” value is on record as “two years”. Moreover, the Ea reported previously in data set [6] is 30.8 kcal/mol.
For `O=C1NC(=O)C(c2ccccc2)(c2ccccc2)N1` [phenytoin], in data set [7] (pH values <8), the Solubility is 20 to 25 µg/mL. In addition, the Intrinsic aqueous solubility result in data set [7] (phenytoin, background) is listed as “less than 25 μg/ml”. Also, the figures for the Kd in data set [2] (pH 7.4) and in data set [2] (pH 8) were 0.932 mM and 1.26 mM, respectively. For the same compound, the “Type of phase solubility diagram” value in data set [2] (25° C., pH 7.4 and 8.0, presence or absence of 80.6 mg/ml fosphenytoin) was “AL-type”. For the same compound, in data set [2] ((SBE)7m-β-CD, 25° C.), the “Solubility enhancement in presence of fosphenytoin vs absence” value is reported as “lower than that in the absence of fosphenytoin”. Further, the solubility at 120 h in [8] (pH 7.4, aqueous buffer, pH 7.4, 0 mM (SBE)7m-β-CD, 25° C., read-out: Phenytoin Conc. (Solubility Criteria)) worked out at 49.8 µg/mL; in data set [8] (pH 7.4, aqueous buffer, pH 7.4, 60 mM (SBE)7m-β-CD, 25° C., read-out: Phenytoin Conc. (Solubility Criteria)), 451 µg/mL; in data set [8] (pH 7.4, aqueous buffer, pH 7.4, 25° C., absence of fosphenytoin, read-out: Solubility of phenytoin) it was 18.1 µg/mL; in [8] (pH 7.4, aqueous buffer, pH 7.4, 25° C., presence of fosphenytoin 80.6 mg/ml, read-out: Solubility of phenytoin), 49.8 µg/mL; in [8] (pH 8, aqueous buffer, pH 8.0, 0 mM (SBE)7m-β-CD, 25° C., read-out: Phenytoin Conc. (Solubility Criteria)) it was 61.9 µg/mL; in data set [8] (pH 8, aqueous buffer, pH 8.0, 30 mM (SBE)7m-β-CD, 25° C., read-out: Phenytoin Conc. (Solubility Criteria)), 274 µg/mL. The solubility at 120 h in data set [8] (pH 8, aqueous buffer, pH 8.0, 60 mM (SBE)7m-β-CD, 25° C., read-out: Phenytoin Conc. (Solubility Criteria)) was found to be 476 µg/mL; in [8] (pH 8, aqueous buffer, pH 8.0, 25° C., presence of fosphenytoin 80.6 mg/ml, read-out: Solubility of phenytoin), 61.9 µg/mL; in [8] (pH 8, aqueous buffer, pH 8.0, 25° C., printed 'in the absence of phenytoin', read-out: Solubility of phenytoin), 27.5 µg/mL. Moreover, the pKa value in [9] is 8.06-8.33.
